This note sets out measurements from article PMC9782245, “Synthesis and Structural Optimization of 2,7,9-Trisubstituted purin-8-ones as FLT3-ITD Inhibitors” (International Journal of Molecular Sciences, 2022).

The target of one assay is T1, FLT3-ITD (Homo sapiens, UniProt P36888, ITD).
T1 sequence (P36888 27-993): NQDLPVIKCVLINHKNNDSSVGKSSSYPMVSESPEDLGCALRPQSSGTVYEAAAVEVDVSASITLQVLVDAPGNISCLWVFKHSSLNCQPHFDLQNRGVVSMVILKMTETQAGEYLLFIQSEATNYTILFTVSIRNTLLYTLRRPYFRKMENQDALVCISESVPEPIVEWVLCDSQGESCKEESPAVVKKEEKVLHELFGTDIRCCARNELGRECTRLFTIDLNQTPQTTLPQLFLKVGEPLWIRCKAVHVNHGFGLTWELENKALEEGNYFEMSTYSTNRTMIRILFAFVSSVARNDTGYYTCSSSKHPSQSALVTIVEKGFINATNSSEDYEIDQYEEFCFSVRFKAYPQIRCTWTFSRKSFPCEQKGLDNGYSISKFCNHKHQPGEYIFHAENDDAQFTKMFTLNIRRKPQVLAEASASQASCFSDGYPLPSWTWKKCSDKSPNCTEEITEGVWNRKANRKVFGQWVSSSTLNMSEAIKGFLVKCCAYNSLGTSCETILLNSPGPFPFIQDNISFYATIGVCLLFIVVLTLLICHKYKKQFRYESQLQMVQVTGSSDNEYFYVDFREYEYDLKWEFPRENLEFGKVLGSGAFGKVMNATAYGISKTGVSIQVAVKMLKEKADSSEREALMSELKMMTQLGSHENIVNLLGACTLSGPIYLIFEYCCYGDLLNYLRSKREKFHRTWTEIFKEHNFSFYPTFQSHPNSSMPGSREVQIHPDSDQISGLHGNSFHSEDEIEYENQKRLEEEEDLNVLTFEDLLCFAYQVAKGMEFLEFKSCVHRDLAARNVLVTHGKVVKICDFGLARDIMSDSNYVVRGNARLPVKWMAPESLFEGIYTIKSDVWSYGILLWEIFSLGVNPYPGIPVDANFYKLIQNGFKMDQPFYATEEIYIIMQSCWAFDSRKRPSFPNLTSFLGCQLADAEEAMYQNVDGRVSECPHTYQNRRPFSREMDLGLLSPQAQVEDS
In words: Kinase inhibition assay FLT3-ITD. Format: biochemical. The method, then: (§1) Newly prepared compounds 12–15 were assayed for inhibition of FLT3-ITD kinase as well as CDK4 and CDK2, known off-targets of structurally related compounds. We observed that CDK4 was sensitive to nearly all compounds with IC50 values in mid-nanomolar values.
(§2) CDK/cyclin complexes and FLT3 kinases were assayed as previously described. Protein kinase selectivity was evaluated at a single concentration (1 µM) by screening against 30 enzymes at Eurofins Discovery (France).

The subject of a further assay is MV4-11 cells. In words: Resazurin-based viability assay, MV4-11. Format: cell-based, Human. To be noted: for GI50: Homo sapiens, MV4-11, 72 h, resazurin, at least duplicate experiments. The source says:
(§3) In parallel to kinase assays, we measured the effect of compounds on the viability of cancer cell lines MV4-11 and K562 using a resazurin-based assay. MV4-11 is an AML cell line dependent on a constitutively activated FLT3-ITD kinase with high sensitivity to FLT3 inhibition, K562 cells (chronic myelogenous leukemia) are independent on FLT3.
(§4) Human cell lines were obtained from the European Collection of Authenticated Cell Cultures (K562) and Cell lines service (MV4-11) and were cultivated according to the provider’s instructions. Briefly, cells were maintained in RPMI-1640 (MV4-11) or DMEM (K562) supplemented with 10% fetal bovine serum, penicillin (100 U/mL), and streptomycin (0.1 mg/mL) at 37 °C in 5% CO2. For the viability assays, cells were treated in triplicate with six different doses of each compound for 72 h. After treatments, the resazurin (Sigma Aldrich, St. Louis, MO, USA) solution was added for 4 h, and the fluorescence of resorufin corresponding to live cells was measured at 544/590 nm (excitation/emission) using a Fluoroskan Ascent microplate reader (Labsystems). The GI50 value, the drug concentration lethal to 50% of the cells, was calculated from the dose-response curves that resulted from the assays.
(In general: Resazurin is reduced to fluorescent resorufin, in cell work by metabolically active cells.)

For another assay, the target named is T2, CDK4 (Homo sapiens, UniProt P11802).
T2 construct: purchased Eurofins Discovery (France)
T2 sequence (P11802 whole entry): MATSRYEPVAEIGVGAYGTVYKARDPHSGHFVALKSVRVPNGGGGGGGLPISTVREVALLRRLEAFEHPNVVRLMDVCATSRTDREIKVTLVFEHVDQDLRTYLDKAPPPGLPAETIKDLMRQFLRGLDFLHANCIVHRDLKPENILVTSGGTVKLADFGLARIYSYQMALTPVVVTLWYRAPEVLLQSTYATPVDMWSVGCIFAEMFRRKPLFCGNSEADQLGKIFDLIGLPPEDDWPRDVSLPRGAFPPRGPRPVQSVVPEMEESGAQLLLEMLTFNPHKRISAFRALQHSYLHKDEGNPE
T2 sequence (P30281 whole entry partner): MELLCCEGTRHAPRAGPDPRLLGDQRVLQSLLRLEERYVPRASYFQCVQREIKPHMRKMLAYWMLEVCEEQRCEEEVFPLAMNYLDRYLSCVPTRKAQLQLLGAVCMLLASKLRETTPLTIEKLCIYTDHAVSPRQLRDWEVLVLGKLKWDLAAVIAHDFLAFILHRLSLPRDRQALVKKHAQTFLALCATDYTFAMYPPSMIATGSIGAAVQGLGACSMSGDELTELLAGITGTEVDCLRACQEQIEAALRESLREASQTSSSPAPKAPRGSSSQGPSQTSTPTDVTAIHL
In words: Kinase selectivity panel at 1 µM (Eurofins), CDK4. Format: biochemical. The method, then: (§5) Three representative compounds (14d, 14e, and 15a) were profiled in a 1 µM concentration against 30 kinases that were selected as known off-targets of approved CDK4/6 inhibitors. […] Additional sensitive kinases include STK16, EphA1, MEKK2, SRC, and MER (≤10% of residual enzyme activities), which are not targets of the structurally similar CDK4/6 inhibitor, trilaciclib. We also screened compound 15a, an analogue of 14d, bearing isopropyl at position 7 of the purine instead of the methyl group. This change rapidly diminished the potency against CDK4 (dropped to 90% of residual enzyme activity), but the preference for FLT3 remained (1st rank) (Figure 2).
as §2

The next assay concerns K562 cells. In words: Resazurin-based viability assay, K562. The assay is classed as cell-based. To be noted: Homo sapiens, 72 h, at least duplicate experiments.
Text: as §3, §4

The target in another assay is T3, Src (Homo sapiens, UniProt P12931).
T3 construct: purchased Eurofins Discovery (France)
T3 sequence (P12931 whole entry): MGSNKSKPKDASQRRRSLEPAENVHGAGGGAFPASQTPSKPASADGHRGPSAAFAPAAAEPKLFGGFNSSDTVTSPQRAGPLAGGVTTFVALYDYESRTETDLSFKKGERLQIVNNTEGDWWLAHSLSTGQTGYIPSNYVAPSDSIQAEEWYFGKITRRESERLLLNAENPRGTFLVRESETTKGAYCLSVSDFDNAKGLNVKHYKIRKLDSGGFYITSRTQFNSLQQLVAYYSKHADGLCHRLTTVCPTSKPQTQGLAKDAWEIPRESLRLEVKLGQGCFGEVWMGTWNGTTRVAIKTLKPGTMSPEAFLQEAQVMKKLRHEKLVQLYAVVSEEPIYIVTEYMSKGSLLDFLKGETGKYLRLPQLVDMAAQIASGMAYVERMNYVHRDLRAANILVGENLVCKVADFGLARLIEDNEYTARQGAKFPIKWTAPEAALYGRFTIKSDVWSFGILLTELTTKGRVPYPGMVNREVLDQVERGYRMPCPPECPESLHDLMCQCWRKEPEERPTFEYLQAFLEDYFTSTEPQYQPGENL
In words: Kinase selectivity panel at 1 µM (Eurofins), Src. The assay is classed as biochemical. To be noted: read-out: residual enzyme activity Src. How it is done:
as §5, §2

In a further assay the target is CDK2/E (Homo sapiens, UniProt P24941). In words: Kinase inhibition assay CDK2/E. The assay is classed as biochemical. How it is done: as §1, §2
The target in another assay is CDK4/D1 (Homo sapiens, UniProt P11802). In words: Kinase inhibition assay CDK4/D1. Format: biochemical. How it is done: as §1, §2
Sequence of CDK4/D1 (P11802 whole entry): as the sequence (P11802 whole entry) above
Sequence of CDK4/D1 (P24385 whole entry partner): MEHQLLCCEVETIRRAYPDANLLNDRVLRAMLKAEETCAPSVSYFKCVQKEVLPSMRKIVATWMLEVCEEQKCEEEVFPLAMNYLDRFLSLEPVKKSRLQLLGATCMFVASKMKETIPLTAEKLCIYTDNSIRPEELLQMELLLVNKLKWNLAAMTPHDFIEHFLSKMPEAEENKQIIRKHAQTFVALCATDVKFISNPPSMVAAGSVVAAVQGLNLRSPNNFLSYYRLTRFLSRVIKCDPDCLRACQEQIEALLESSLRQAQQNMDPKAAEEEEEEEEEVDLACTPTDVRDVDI
The target in another assay is T4, FLT3 (Homo sapiens, UniProt P36888).
T4 construct: purchased Eurofins Discovery (France)
T4 sequence (P36888 27-993): T1 sequence (P36888 27-993)
In words: Kinase selectivity panel at 1 µM (Eurofins), FLT3. To be noted: 30 kinases. Format: biochemical. How it is done:
as §5, §2

In assay [1] the test system is FLT3 signaling (FLT3 Y589/591, STAT5, ERK1/2) in MV4-11 cells. In words: Western blot of FLT3 and downstream signaling in MV4-11. To be noted: MV4-11, 1 h treatment. The assay is classed as cell-based, Human. How it is done:
Next, we investigated the compounds for their ability to inhibit FLT3 and its downstream signaling in the MV4-11 cell line.
Cell lysates were prepared, and then proteins were separated on SDS-polyacrylamide gels and electroblotted onto nitrocellulose membranes.

Where [2] appears, read: at least duplicate experiments, read-out: IC50 FLT3-ITD.
[3] abbreviates: at least duplicate experiments, read-out: IC50 CDK2/E.
The mark [4] stands for this setting: at least duplicate experiments, read-out: IC50 CDK4/D1.

Values joined by “and” are separate entries in the source; they are usually repeats but may differ in a detail not shown here. Equal values may be shown once. Read-outs that look alike come from different tables or passages of the source.

As to `Cn1c(=O)n(C2CCCC2)c2nc(Nc3ccc(N4CCNCC4)cc3)ncc21` [14d], the IC50 on FLT3-ITD (setting [2]) is 83 nM; at CDK2/E (setting [3]), > 1000 nM and 1820 nM; on CDK4/D1 (setting [4]), 157 nM. Also, the GI50 in the assay on MV4-11 cells is 120 nM; with K562 cells it was 960 nM. At CDK4, the “CDK4 inhibition in selectivity panel” value is “potent CDK4 and FLT3 inhibitors”. Further, the remaining activity at 1 µM at Src was no more than 10%. Besides, the “FLT3 inhibition in selectivity panel” value on FLT3 is “potent CDK4 and FLT3 inhibitors”.

For the compound `Cn1c(=O)n(C2CCCCC2)c2nc(Nc3ccc(N4CCNCC4)cc3)ncc21` [14e], the IC50 on FLT3-ITD (setting [2]) was 68 nM; at FLT3-ITD (read-out: IC50 FLT3) it was no more than 300 nM; at CDK2/E (setting [3]), 300 nM; on CDK2/E (read-out: IC50 CDK2), no more than 300 nM; on CDK4/D1 (setting [4]), 20 nM; at CDK4/D1 (read-out: IC50 CDK4) it was no more than 300 nM. For the same compound, the GI50 is 200 nM in the assay with MV4-11 cells and 4530 nM with K562 cells. Also, the “selectivity index (ratio for GI50's of K562 and MV4-11 cells)” value in the assay with MV4-11 cells (K562 / MV4-11) is greater than 20. Moreover, the “CDK4 inhibition in selectivity panel” value at CDK4 was “potent CDK4 and FLT3 inhibitors”. Besides, the “autophosphorylation of FLT3 kinase at Y589/591” value in assay [1] is “inhibits autophosphorylation of FLT3 kinase at Y589/591”. In addition, in assay [1], the “phosphorylation of downstream proteins STAT5 and ERK1/2” value is recorded as “diminishes the phosphorylation”. Moreover, the remaining activity at 1 µM on Src is no more than 10%. The “FLT3 inhibition in selectivity panel” value on FLT3 was “potent CDK4 and FLT3 inhibitors”.

For the compound `CC(C)n1c(=O)n(C2CCCC2)c2nc(Nc3ccc(N4CCNCC4)cc3)ncc21` [15a, 9-cyclopentyl-7-isopropyl-2-((4-(piperazin-1-yl)phenyl)amino)-7,9-dihydro-8H-purin-8-one], the IC50 on FLT3-ITD (setting [2]) worked out at 37 nM; on CDK2/E (setting [3]), 5060 nM; at CDK4/D1 (setting [4]) it was 1900 nM. Moreover, the values for the GI50 with MV4-11 cells and with K562 cells were 50 nM and 580 nM, respectively. The remaining activity at 1 µM on CDK4 (read-out: residual enzyme activity CDK4) was 90%; on Src, no more than 10%. The “concentration at which dephosphorylation of FLT3 was observed” value in assay [1] amounted to 8 nM. Besides, the “concentration giving nearly complete suppression of ERK1/2” value in [1] is given as 40 nM. Moreover, at FLT3, the “FLT3 inhibition in selectivity panel” value was 1st rank.

One may read the GI50 as the concentration that inhibits growth by half. Low readings indicate more potent growth inhibition, high ones less potent growth inhibition.
